Measurements taken from ChEMBL document CHEMBL1155057, “Studies toward the discovery of the next generation of antidepressants. Part 6: Dual 5-HT1A receptor and serotonin transporter affinity within a class of arylpiperazinyl-cyclohexyl indole derivatives” (Bioorg Med Chem, 2008).

How the values were obtained:
[1] = target: Sodium-dependent serotonin transporter (Rattus norvegicus) (UniProt P31652); experiment: Displacement of [3H]paroxetine from rat cortical 5HTT reuptake site at 100 nM
[2] = target: T1, 5-hydroxytryptamine receptor 1A (Homo sapiens) (UniProt P08908); experiment: Intrinsic activity at human 5HT1A receptor expressed in CHO cells by GTPgammaS binding assay relative to serotonin; format: functional, cell-based
T1 sequence (whole entry): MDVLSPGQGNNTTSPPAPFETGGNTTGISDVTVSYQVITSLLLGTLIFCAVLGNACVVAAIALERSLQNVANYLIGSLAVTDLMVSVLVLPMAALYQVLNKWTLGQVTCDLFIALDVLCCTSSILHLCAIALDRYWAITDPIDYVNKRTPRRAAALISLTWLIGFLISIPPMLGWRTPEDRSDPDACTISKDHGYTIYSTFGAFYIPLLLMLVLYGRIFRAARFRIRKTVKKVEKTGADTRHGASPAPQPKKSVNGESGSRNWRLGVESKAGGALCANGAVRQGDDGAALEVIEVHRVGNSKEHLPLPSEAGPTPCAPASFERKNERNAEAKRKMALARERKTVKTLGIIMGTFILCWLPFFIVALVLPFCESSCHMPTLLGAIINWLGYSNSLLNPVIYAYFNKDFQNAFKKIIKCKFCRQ

[3] = target: Sodium-dependent serotonin transporter (Rattus norvegicus, UniProt P31652)
Sodium-dependent serotonin transporter, sequence (P31652 whole entry): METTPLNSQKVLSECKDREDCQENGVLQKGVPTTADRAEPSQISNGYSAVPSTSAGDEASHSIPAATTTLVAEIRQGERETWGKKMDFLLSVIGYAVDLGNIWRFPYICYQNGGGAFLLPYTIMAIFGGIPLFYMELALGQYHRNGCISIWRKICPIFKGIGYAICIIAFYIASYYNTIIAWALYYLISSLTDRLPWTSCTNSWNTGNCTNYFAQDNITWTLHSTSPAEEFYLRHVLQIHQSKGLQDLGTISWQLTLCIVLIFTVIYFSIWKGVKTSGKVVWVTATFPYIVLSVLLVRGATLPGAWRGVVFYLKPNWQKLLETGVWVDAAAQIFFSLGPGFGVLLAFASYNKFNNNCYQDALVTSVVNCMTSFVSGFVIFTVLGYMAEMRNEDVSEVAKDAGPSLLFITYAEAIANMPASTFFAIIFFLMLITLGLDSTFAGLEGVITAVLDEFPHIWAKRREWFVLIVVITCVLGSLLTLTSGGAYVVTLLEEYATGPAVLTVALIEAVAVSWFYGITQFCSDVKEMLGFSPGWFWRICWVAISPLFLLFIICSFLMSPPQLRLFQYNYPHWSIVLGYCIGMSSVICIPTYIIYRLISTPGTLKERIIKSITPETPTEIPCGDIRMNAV

[4] = target: T2, 5-hydroxytryptamine receptor 1A (Homo sapiens, UniProt P08908); experiment: biochemical
T2 sequence (P08908 whole entry): T1 sequence (whole entry)

[5] = target: T1, 5-hydroxytryptamine receptor 1A (Homo sapiens); experiment: Displacement of [3H]8-OH-DPAT from human 5HT1A receptor expressed in CHO cells at 1 uM; format: cell-based
[6] = target: Sodium-dependent serotonin transporter (Rattus norvegicus) (UniProt P31652); experiment: Displacement of [3H]paroxetine from rat cortical 5HTT reuptake site at 1 uM
[7] = species on record: Rattus norvegicus; details: 100 nM
Description: Displacement of 3H]paroxetine from rat cortical alpha1 adrenergic receptor at 100 nM

Sodium-dependent serotonin transporter (Rattus norvegicus), sequence (P31652 whole entry): as above

Cc1[nH]c2ccccc2c1[C@H]1CC[C@@H](N2CCN(c3cccc4[nH]ccc34)CC2)CC1
inhibition [1]: 4%

N#Cc1ccc2[nH]cc([C@H]3CC[C@@H](N4CCN(c5cccc6cccnc56)CC4)CC3)c2c1
Emax [2]: 23% | Ki [3]: 1.3 nM

Fc1ccc2[nH]cc([C@H]3CC[C@H](N4CCN(c5cccc6cccnc56)CC4)CC3)c2c1
Emax [2]: 66%

Fc1ccc2[nH]cc([C@H]3CC[C@@H](N4CCN(c5cccc6ncccc56)CC4)CC3)c2c1
Emax [2]: 0% | Ki [3]: 13.8 nM | Ki [4]: 97.2 nM

Fc1ccc2[nH]cc([C@H]3CC[C@@H](N4CCN(c5cccc6ccccc56)CC4)CC3)c2c1
inhibition [5]: 46% | Emax [2]: 34% | Ki [3]: 640 nM

CC(C)n1cc([C@H]2CC[C@H](N3CCN(c4cccc5[nH]ccc45)CC3)CC2)c2cc(C#N)ccc21
inhibition [1]: 16% | inhibition [5]: 46%

Cc1[nH]c2ccccc2c1[C@H]1CC[C@H](N2CCN(c3cccc4[nH]ccc34)CC2)CC1
inhibition [1]: 12%

COc1ccc2[nH]cc([C@H]3CC[C@@H](N4CCN(c5cccc6[nH]ccc56)CC4)CC3)c2c1
inhibition [1]: 25%

N#Cc1ccc2[nH]cc([C@H]3CC[C@H](N4CCN(c5cccc6nccnc56)CC4)CC3)c2c1
Emax [2]: 11% | Ki [3]: 13.6 nM | Ki [4]: 9.1 nM

C1=Nc2cccc(N3CCN([C@H]4CC[C@@H](c5c[nH]c6ncccc65)CC4)CC3)c2C1
inhibition [1]: 0% | Ki [4]: 15.8 nM

c1cc(N2CCN([C@H]3CC[C@H](c4c[nH]c5ccccc54)CC3)CC2)c2cc[nH]c2c1
Ki [4]: 5.3 nM

Cn1cc([C@H]2CC[C@H](N3CCN(c4cccc5[nH]ccc45)CC3)CC2)c2cc(F)ccc21
Ki [3]: 67.5 nM | Ki [4]: 90 nM

Fc1cccc2[nH]cc([C@H]3CC[C@H](N4CCN(c5cccc6[nH]ccc56)CC4)CC3)c12
inhibition [1]: 0%

N#Cc1ccc2[nH]cc([C@H]3CC[C@@H](N4CCN(c5cccc6ncccc56)CC4)CC3)c2c1
Emax [2]: 0% | Ki [3]: 3.5 nM | Ki [4]: 58.1 nM

Cn1cc([C@H]2CC[C@@H](N3CCN(c4cccc5[nH]ccc45)CC3)CC2)c2cc(F)ccc21
Ki [3]: 11.6 nM | Ki [4]: 124 nM

FC(F)(F)c1nc2c(N3CCN([C@H]4CC[C@@H](c5c[nH]c6ccccc65)CC4)CC3)cccc2[nH]1
Emax [2]: 0% | Ki [3]: 105 nM | Ki [4]: 16.1 nM

c1cc(N2CCN([C@H]3CC[C@@H](c4c[nH]c5ccccc54)CC3)CC2)c2cc[nH]c2c1
Emax [2]: 0%

C1=Nc2cccc(N3CCN([C@H]4CC[C@H](c5c[nH]c6ncccc65)CC4)CC3)c2C1
inhibition [1]: 18% | Ki [4]: 7.8 nM

Fc1ccc2[nH]cc([C@H]3CC[C@H](N4CCN(c5cccc6ccccc56)CC4)CC3)c2c1
inhibition [6]: 38% | Emax [2]: 71% | Ki [4]: 42.6 nM

N#Cc1ccc2[nH]cc([C@H]3CC[C@@H](N4CCN(c5cccc6nccnc56)CC4)CC3)c2c1
Emax [2]: 0% | Ki [3]: 1.1 nM | Ki [4]: 156 nM

Fc1ccc2c(c1)[nH]cc2[C@H]1CC[C@H](N2CCN(c3cccc4[nH]ccc34)CC2)CC1
Ki [4]: 5.4 nM

N#Cc1ccc2[nH]cc([C@H]3CC[C@@H](N4CCN(c5cccc6[nH]ccc56)CC4)CC3)c2c1
Emax [2]: 0% | Ki [3]: 1.6 nM

FC(F)(F)c1nc2c(N3CCN([C@H]4CC[C@H](c5c[nH]c6ccccc65)CC4)CC3)cccc2[nH]1
Emax [2]: 29% | Ki [3]: 75 nM | Ki [4]: 3.6 nM

COc1ccc2[nH]cc([C@H]3CC[C@H](N4CCN(c5cccc6[nH]ccc56)CC4)CC3)c2c1
inhibition [6]: 45% | Ki [4]: 2.9 nM

c1cc(N2CCN([C@H]3CC[C@H](c4c[nH]c5ccccc54)CC3)CC2)c2nc[nH]c2c1
Emax [2]: 0% | Ki [3]: 75 nM | Ki [4]: 1.7 nM

Cc1nc2c(N3CCN([C@H]4CC[C@H](c5c[nH]c6ccccc65)CC4)CC3)cccc2[nH]1
Emax [2]: 0% | Ki [3]: 115 nM | Ki [4]: 3 nM

Clc1ccc2[nH]cc([C@H]3CC[C@@H](N4CCN(c5cccc6[nH]ccc56)CC4)CC3)c2c1
inhibition [1]: 28%

Fc1ccc2[nH]cc([C@H]3CC[C@H](N4CCN(c5cccc6[nH]ccc56)CC4)CC3)c2c1
inhibition [7]: 16%

CC(C)n1cc([C@H]2CC[C@@H](N3CCN(c4cccc5[nH]ccc45)CC3)CC2)c2cc(C#N)ccc21
Ki [3]: 38.5 nM

Fc1ccc2[nH]cc([C@H]3CC[C@@H](N4CCN(c5cccc6cccnc56)CC4)CC3)c2c1
Emax [2]: 20%

N#Cc1ccc2[nH]cc([C@H]3CC[C@H](N4CCN(c5cccc6[nH]ccc56)CC4)CC3)c2c1
Emax [2]: 11% | Ki [3]: 8.5 nM

Cc1nc2c(N3CCN([C@H]4CC[C@@H](c5c[nH]c6ccccc65)CC4)CC3)cccc2[nH]1
Emax [2]: 0% | Ki [3]: 61 nM | Ki [4]: 10.7 nM

c1cc(N2CCN([C@H]3CC[C@@H](c4c[nH]c5ccccc54)CC3)CC2)c2nc[nH]c2c1
Emax [2]: 0% | Ki [3]: 13 nM | Ki [4]: 7.9 nM

N#Cc1ccc2[nH]cc([C@H]3CC[C@H](N4CCN(c5cccc6ncccc56)CC4)CC3)c2c1
Emax [2]: 3% | Ki [3]: 4.9 nM | Ki [4]: 6.2 nM

N#Cc1ccc2[nH]cc([C@H]3CC[C@H](N4CCN(c5cccc6cccnc56)CC4)CC3)c2c1
Emax [2]: 0% | Ki [3]: 20 nM

Fc1cccc2[nH]cc([C@H]3CC[C@@H](N4CCN(c5cccc6[nH]ccc56)CC4)CC3)c12
inhibition [1]: 27%

Clc1ccc2[nH]cc([C@H]3CC[C@H](N4CCN(c5cccc6[nH]ccc56)CC4)CC3)c2c1
inhibition [6]: 20%

CCCn1cc([C@H]2CC[C@H](N3CCN(c4cccc5[nH]ccc45)CC3)CC2)c2cc(C#N)ccc21
inhibition [5]: 46%

Fc1ccc2[nH]cc([C@H]3CC[C@H](N4CCN(c5cccc6ncccc56)CC4)CC3)c2c1
Emax [2]: 0% | Ki [3]: 73 nM | Ki [4]: 8.3 nM

Fc1ccc2c(c1)[nH]cc2[C@H]1CC[C@@H](N2CCN(c3cccc4[nH]ccc34)CC2)CC1
Emax [2]: 0%
